Test results taken from patent US20180168208A1 (priority 2014, published 2018).
Several values for one entry are separate records, joined by “and”; a condition that tells them apart may be missing. Equal entries are not always repeated. Structures can show the parent of a compound that is named as a salt. Where two headings read alike, the source gives them in different places.

How the values were obtained:
T1R1/T1R3 receptor [1] = biological target: T1, T1R1/T1R3 receptor (Felis catus, UniProt E3UMS2); assay: Example 6: activation of T1R1/T1R3 by transmembrane compounds, conducted as in Example 5; assay type: cell-based
Source text: (§1) HEK293 cells that stably express T1R3 and inducibly express T1R1 were exposed to transmembrane compounds alone or in combination with one or more amino acids and/or one or more nucleotides to activate the umami receptor. Activation of the T1R1/T1R3 receptor was detected by a change in intracellular calcium levels using a calcium sensitive fluorescent dye. Cells that express T1R3 but not T1R1 were used as a control. A FLIPR® Tetra or a FlexStation® 3 was used for data capture.
In each experiment, serial dilutions of up to 10 mM of the transmembrane compound were added to the T1R1/T1R3-expressing cells.

T1R1/T1R3 receptor [2] = biological target: T1, T1R1/T1R3 receptor; assay: cell-based; conditions: for Max resp % of Ala, +IMP (0.2 mM): relative to alanine; for Thres (mM), +IMP (0.2 mM): threshold concentration in the presence of 0.2 mM IMP
How it was run: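 HEK293 cells stably expressing T1R3 with inducible T1R1 were given transmembrane compounds in serial dilutions up to 10 mM, alone or with amino acids and/or nucleotides. Receptor activation was read as an intracellular calcium change with a calcium-sensitive fluorescent dye; T1R3-only cells served as control.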

cat T1R1/T1R3 receptor [3] = biological target: T2, cat T1R1/T1R3 receptor (Felis catus, UniProt A0ABI7Z2I4); assay: cell-based
T2 sequence (A0ABI7Z2I4 171-420): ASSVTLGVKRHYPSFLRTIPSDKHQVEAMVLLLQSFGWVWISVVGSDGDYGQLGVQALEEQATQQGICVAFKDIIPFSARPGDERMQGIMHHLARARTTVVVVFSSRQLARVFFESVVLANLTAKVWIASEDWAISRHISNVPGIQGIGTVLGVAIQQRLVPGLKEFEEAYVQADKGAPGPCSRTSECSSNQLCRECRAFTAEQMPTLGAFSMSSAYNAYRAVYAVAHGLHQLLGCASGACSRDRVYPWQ
T2 sequence (Q49KI5 25-865 E206Q/N523D/F654L partner): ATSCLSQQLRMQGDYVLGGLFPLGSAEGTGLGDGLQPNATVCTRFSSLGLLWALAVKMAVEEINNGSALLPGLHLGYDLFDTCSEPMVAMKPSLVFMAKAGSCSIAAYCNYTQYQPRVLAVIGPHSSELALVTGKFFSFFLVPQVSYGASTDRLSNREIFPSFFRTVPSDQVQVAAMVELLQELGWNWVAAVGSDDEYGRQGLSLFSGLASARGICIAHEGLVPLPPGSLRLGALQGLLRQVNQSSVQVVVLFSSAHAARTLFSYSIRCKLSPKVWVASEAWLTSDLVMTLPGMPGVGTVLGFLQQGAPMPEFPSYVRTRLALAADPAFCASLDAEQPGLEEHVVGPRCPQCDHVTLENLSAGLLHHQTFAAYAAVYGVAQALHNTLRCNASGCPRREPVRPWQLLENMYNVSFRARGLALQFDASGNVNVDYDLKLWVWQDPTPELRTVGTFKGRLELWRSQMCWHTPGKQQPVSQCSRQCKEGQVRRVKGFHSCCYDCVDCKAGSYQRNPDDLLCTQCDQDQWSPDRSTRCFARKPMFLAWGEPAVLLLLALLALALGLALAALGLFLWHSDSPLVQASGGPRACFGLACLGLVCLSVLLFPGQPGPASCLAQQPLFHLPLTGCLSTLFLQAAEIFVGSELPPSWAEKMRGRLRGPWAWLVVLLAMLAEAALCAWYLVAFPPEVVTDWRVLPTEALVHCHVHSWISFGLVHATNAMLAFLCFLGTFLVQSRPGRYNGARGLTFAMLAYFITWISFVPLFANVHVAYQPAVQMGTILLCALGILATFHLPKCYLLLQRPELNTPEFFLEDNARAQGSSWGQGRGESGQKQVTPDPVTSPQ
How it was run: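 HEK293 cells stably expressing T1R3 with inducible T1R1, treated with nucleotide derivatives alone or combined with amino acids and/or nucleotides. Activation read as intracellular calcium change by calcium-sensitive fluorescent dye and/or luminescent reporter. Cells expressing T1R3 without T1R1 served as control.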

cat T1R1/T1R3 receptor [4] = biological target: T2, cat T1R1/T1R3 receptor; assay: cell-based; remark: listed apart in the source
Description: […] Activation of the T1R1/T1R3 receptor was detected by a change in intracellular calcium levels using a calcium sensitive fluorescent dye. Cells that express T1R3 but not T1R1 were used as a control. A FLIPR® Tetra or a FlexStation® 3 was used for data capture.
In each experiment, serial dilutions of up to 0.1 mM, 1 mM or 10 mM of the nucleotide derivative were added to the T1R1/T1R3-expressing cells.

T1R1/T1R3 receptor [5] = biological target: T1, T1R1/T1R3 receptor; assay: cell-based; assay type: cell-based
How it was run: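 HEK293 cells stably expressing T1R3 with inducible T1R1 received serial dilutions of compound (up to 10 mM), alone or with amino acids and/or nucleotides. Activation was read as an intracellular calcium change with a calcium-sensitive fluorescent dye. Cells expressing T1R3 without T1R1 served as control.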

T1R1/T1R3 receptor [6] = biological target: T1, T1R1/T1R3 receptor; assay: Example 8: PAM screening of transmembrane compounds with GMP and Ala on T1R1/T1R3 in HEK293 cells; assay type: cell-based, cat; conditions: in the presence of GMP and Alanine
Source text: as §1, with “compound” for “compounds”, “Ala and GMP” for “one or more amino acids and/or one or more nucleotides”, “dye and/or” for “dye. Cells that express T1R3 but not T1R1 were used as”, “luminescent reporter system. […]” for “control.”
Target sequence in this assay (E3UMS2 entry or part of it, one chain of several): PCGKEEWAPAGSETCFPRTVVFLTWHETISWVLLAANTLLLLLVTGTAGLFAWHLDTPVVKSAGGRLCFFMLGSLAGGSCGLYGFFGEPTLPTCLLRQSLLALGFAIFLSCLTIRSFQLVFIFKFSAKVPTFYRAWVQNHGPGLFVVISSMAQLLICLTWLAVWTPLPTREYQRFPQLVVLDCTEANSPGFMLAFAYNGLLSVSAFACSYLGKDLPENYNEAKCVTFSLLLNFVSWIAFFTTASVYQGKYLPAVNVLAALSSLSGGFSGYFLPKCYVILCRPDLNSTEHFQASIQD
Dose response curves were generated for each transmembrane compound at concentrations of 0 (buffer only), 0.01, 0.1 and 1 mM, wherein each of the three concentrations of transmembrane compound was tested in combination with 0.03 mM GMP+100 mM Ala (T1); 0.6 mM GMP+10 mM Ala (T2); 0.1 mM GMP+60 mM Ala (T3) and 0.3 mM GMP+60 mM Ala (T4). The T4 mixture was also tested in a 2-fold dilution series (the T4(×) Concentration). In these experiments, the first test concentration was 2× (2 times) the T4 concentration. The subsequent test concentrations were 2-fold dilutions from that (1×, 0.5×etc.). This dilution series was tested with or without the addition of the test compound at a constant 0.3 mM concentration.
Activation of the umami receptor was also determined in the presence of 1 mM GMP+100 mM Ala to generate a “maximum” umami receptor activation level.

T1R1/T1R3 receptor [7] = biological target: T1, T1R1/T1R3 receptor; assay: Example 8: agonist screening of transmembrane compounds on T1R1/T1R3 in HEK293 cells; assay type: cell-based, cat; conditions: transmembrane compound alone
Description: HEK293 cells that stably express T1R3 and inducibly express T1R1 were exposed to a transmembrane compound. Activation of the T1R1/T1R3 receptor was detected by a change in intracellular calcium levels using a calcium sensitive fluorescent dye and/or a luminescent reporter system. […] A FLIPR® Tetra or a FlexStation® 3 was used for data capture.
Each transmembrane compound was tested at concentrations of 0.01 mM, 0.1 mM, and 1 mM. […] To generate the dose response curves, the transmembrane compound was tested at concentrations of between 0.0001 mM and 1.0 mM in the presence of GMP and Ala.
Target sequence in this assay (E3UMS2 entry or part of it, one chain of several): as above

[8] = T1R1/T1R3 EC50 +0.2 mM IMP, +0.2 mM IMP
[9] = alone in buffer, read-out: T1R1/T1R3 EC50 alone in buffer
[10] = EC50 (mM), +Alanine (20 mM) + IMP (0.2 mM), in the presence of 20 mM alanine and 0.2 mM IMP
[11] = EC50 (mM), +IMP (0.2 mM), in the presence of 0.2 mM IMP
[12] = T1R1/T1R3 EC50 +20 mM L-alanine + 0.2 mM IMP, +20 mM L-alanine + 0.2 mM IMP
[13] = compound alone in buffer, read-out: EC50 (mM), +buffer (alone)

Nc1ccccc1C(=O)NCCc1ccccc1 [2-amino-N-phenethylbenzamide]
EC50 (T1R1/T1R3 receptor [1]): 480 ± 10 µM | EC50 (T1R1/T1R3 receptor [1]; [8]): 140 ± 30 µM | EC50 (T1R1/T1R3 receptor [1]; [9]): 420 ± 10 µM | Max resp % of IMP, +Alanine (20 mM) (T1R1/T1R3 receptor [2]): 93.4% | Thres (mM), +Alanine (20 mM) (T1R1/T1R3 receptor [2]): 0.3 mM | EC50 (T1R1/T1R3 receptor [2]; [10]): 0.09 mM | EC50 (T1R1/T1R3 receptor [2]; EC50 (mM), +Alanine (20 mM), in the presence of 20 mM alanine): 0.48 mM | EC50 (T1R1/T1R3 receptor [2]; [11]): 0.14 mM | EC50 (T1R1/T1R3 receptor [2]; [8]): 0.14 ± 0.02 mM | EC50 (T1R1/T1R3 receptor [2]; [12]): 0.09 ± 0.01 mM | EC50 (T1R1/T1R3 receptor [2]; T1R1/T1R3 EC50 +20 mM L-alanine, +20 mM L-alanine): 0.48 ± 0.01 mM | EC50 (T1R1/T1R3 receptor [2]; [9]): 0.42 ± 0.01 mM | EC50 (T1R1/T1R3 receptor [2]; [13]): 0.42 mM | Max resp % of Ala, +IMP (0.2 mM) (T1R1/T1R3 receptor [2]; in the presence of 0.2 mM IMP): 194.5% | Thres (mM), +IMP (0.2 mM) (T1R1/T1R3 receptor [2]): 0.01 mM

Nc1ncnc2c1ncn2[C@H]1C[C@H](OP(=O)(O)O)[C@@H](COP(=O)(O)O)O1 [2′-deoxyadenosine-3′, 5′-O-bisphosphate]
Max resp. (ΔF/F) (cat T1R1/T1R3 receptor [3]): 0.8 ΔF/F | Max. resp. % of IMP (cat T1R1/T1R3 receptor [3]): 76.4 % of IMP | Threshold (cat T1R1/T1R3 receptor [3]): 0.005 mM | EC50 (cat T1R1/T1R3 receptor [4]; test compound alone (in buffer), read-out: EC50- alone): 20 µM

O=c1[nH]cnc2c1ncn2C1OC(COP(=O)(O)OP(=O)(O)O)C(O)C1O (stereo not shown) [Inosine 5′-disphosphate (IDP) sodium salt]
EC50 (cat T1R1/T1R3 receptor [4]): 650 ± 70 µM

O=C(NCCc1c[nH]c2ccccc12)c1cccnc1 [N-(2-(1H-indol-3-yl)ethyl)nicotinamide, N-(2-(1H-Indol-3-yl)ethyl)nicotinamide]
EC50 (T1R1/T1R3 receptor [1]; [8]): 50 ± 10 µM | EC50 (T1R1/T1R3 receptor [1]; [9]): 150 ± 30 µM | Max resp % of IMP, +Alanine (20 mM) (T1R1/T1R3 receptor [2]): 166.4% | Thres (mM), +Alanine (20 mM) (T1R1/T1R3 receptor [2]): 0.03 mM | EC50 (T1R1/T1R3 receptor [2]; [10]): 0.04 mM | EC50 (T1R1/T1R3 receptor [2]; [11]): 0.05 mM | EC50 (T1R1/T1R3 receptor [2]; [8]): 0.05 ± 0.01 mM | EC50 (T1R1/T1R3 receptor [2]; [12]): 0.04 ± 0.1 mM | EC50 (T1R1/T1R3 receptor [2]; [9]): 0.15 ± 0.03 mM | EC50 (T1R1/T1R3 receptor [2]; [13]): 0.15 mM | Max resp % of Ala, +IMP (0.2 mM) (T1R1/T1R3 receptor [2]; in the presence of 0.2 mM IMP): 170.1% | Thres (mM), +IMP (0.2 mM) (T1R1/T1R3 receptor [2]): 0.003 mM

CCCC(CCC)NC(=O)c1ccc2c(c1)OCO2 [N-(heptan-4-yl)benzo[d][1,3]dioxole-5-carboxamide]
Max resp ΔF/F +Alanine (T1R1/T1R3 receptor [5]; + Alanine, Table 17): 1.7725 and 1.2 | Max resp ΔF/F +IMP (T1R1/T1R3 receptor [5]; + IMP (0.2 mM), Table 17): 1.4725 | Max resp ΔF/F +Alanine (T1R1/T1R3 receptor [5]; +Alanine (20 mM), Table 18): 1.2 and 1.7725 | EC50 (T1R1/T1R3 receptor [5]; +Alanine (20 mM), Table 18, read-out: EC50 +Alanine): 420 µM and 1100 µM | Max resp ΔF/F +IMP (T1R1/T1R3 receptor [5]; +IMP (0.2 mM), Table 18): 1.393 and 1.473 | EC50 (T1R1/T1R3 receptor [5]; EC50 + IMP, + IMP (0.2 mM), Table 17): 90 µM and 100 µM | EC50 (T1R1/T1R3 receptor [5]; EC50 +Alanine + IMP, +Alanine (20 mM) + IMP (0.2 mM), Table 18): 30 µM and 100 µM | EC50 (T1R1/T1R3 receptor [5]; EC50 +IMP, +IMP (0.2 mM), Table 18): 100 µM and 90 µM | EC50 (T1R1/T1R3 receptor [5]; EC50 - with Ala (20 mM) and IMP (0.2 mM), with 20 mM alanine and 0.2 mM IMP): 30 ± 30 µM | EC50 (T1R1/T1R3 receptor [5]; EC50 - with Ala (20 mM), with 20 mM alanine): 420 ± 60 µM | EC50 (T1R1/T1R3 receptor [5]; EC50 - with IMP (0.2 mM), with 0.2 mM IMP): 90 ± 40 µM | EC50 (T1R1/T1R3 receptor [5]; alone in buffer, read-out: EC50 - alone): 260 ± 90 µM | EC50 (T1R1/T1R3 receptor [5]; compound alone in buffer, Table 17, read-out: EC50 + buffer (alone)): 700 µM and 260 µM | EC50 (T1R1/T1R3 receptor [5]; compound alone in buffer, Table 18, read-out: EC50 +buffer (alone)): 260 µM and 700 µM | EC50 (T1R1/T1R3 receptor [5]; read-out: EC50 + Alanine): 1100 µM and 420 µM | PAM profile assessment (PAM activity) (T1R1/T1R3 receptor [6]): PAM activity | agonist profile assessment (agonist activity) (T1R1/T1R3 receptor [7]): agonist
